Source: the PolyMetriX glass transition set

glass transition temperature [°C] | SMILES
58.00 | *CCCNC(=O)CNC(=O)C(NC(=O)C(Cc1ccccc1)NC(=O)CCCCCCCCC(=O)NC(Cc1ccccc1)C(=O)NC(C(=O)NCC(=O)NCCCOCCOCCO*)C(C)C)C(C)C (repeat unit)
148.00 | *CCC(C)(C)CC(C)CNC(=O)c1ccc(C(=O)N*)cc1 (repeat unit)
202.00 | *c1ccc(Sc2ccc(Sc3ccc(Sc4ccc(S(*)(=O)=O)cc4S(=O)(=O)O)cc3)cc2)c(S(=O)(=O)O)c1 (repeat unit)
384.00 | *c1ccc(-c2ccc(N3C(=O)c4ccc(-c5cccc6c5C(=O)N(*)C6=O)cc4C3=O)c(C)c2)cc1C (repeat unit)
28.00 | *Oc1ccccc1C(=O)OC(=O)c1ccccc1OC(=O)CCCCCCCCC(*)=O (repeat unit)
207.00 | *CC(C)(C)C1C(=O)N(c2ccccc2C)C(=O)C1* (repeat unit)
82.00 | *Oc1ccc(CC(NC(=O)CCc2ccc(OC(=O)CCC(*)=O)cc2)C(=O)OC(C)C)cc1 (repeat unit)
139.00 | *CCOC(=O)Nc1ccc(Cc2ccc(NC(=O)O*)cc2)cc1 (repeat unit)
49.00 | *CCCCCCCCCCCOC(=O)c1ccc(-c2ccc(C(=O)O*)cc2)cc1 (repeat unit)

Continued, molecule first:

SMILES | glass transition temperature [°C]
*CC(*)OC(=O)C(F)(F)C(F)(F)C(F)(F)C(F)(F)C(F)(F)C(F)(F)C(F)(F)F (repeat unit) | -10.00
*CC(OO*)c1ccc(C(C)(C)C)cc1 (repeat unit) | 19.90
*CC(*)c1ccccc1COCCCC (repeat unit) | 67.00
*CCCCCCCCCCOc1ccc(/C=C/c2ccc(OCCCCCCCCCCOP(=O)(O*)OCCCCCCCCCCOc3ccc(/N=N/c4ccc(-c5ccccc5)cc4)cc3)cc2)cc1 (repeat unit) | 50.00
*C(=O)NCCN(CCNC(=O)c1ccc2c(c1)C(=O)N(c1ccc(Oc3ccc(N4C(=O)c5ccc(*)cc5C4=O)cc3)cc1)C2=O)c1ccc(/C=C/c2ccc([N+](=O)[O-])cc2)cc1 (repeat unit) | 224.00
*CC(*)C(=O)OCC(F)(F)C(F)C(F)(F)F (repeat unit) | -22.00
*OP(=O)(Oc1ccc(OC)cc1)Oc1ccc(S(=O)(=O)c2ccc(*)cc2)cc1 (repeat unit) | 81.00
*CC(*)(F)C(=O)OCCC(F)(F)C(F)(F)C(F)(F)C(F)(F)C(F)(F)C(F)(F)C(F)(F)C(F)(F)C(F)(F)C(F)(F)F (repeat unit) | 53.00
*Oc1ccc(-c2ccc(Oc3c(F)c(F)c(COC(c4cccc(C(OCc5c(F)c(F)c(*)c(F)c5F)(C(F)(F)F)C(F)(F)F)c4)(C(F)(F)F)C(F)(F)F)c(F)c3F)cc2)cc1 (repeat unit) | 110.00
*C(=O)c1ccc2c(c1)C(=O)N(c1ccc(Sc3ccc(N4C(=O)c5ccc(*)cc5C4=O)cc3)cc1)C2=O (repeat unit) | 276.00
*/N=N/c1ccc(Nc2ccc(C(=O)c3ccc(Nc4ccc(*)cc4)cc3)cc2)cc1 (repeat unit) | 216.42
*CC(OC)C1C(=O)OC(=O)C1* (repeat unit) | 153.50
*CC(*)(C)C(=O)OCCOCCO (repeat unit) | 20.00
*CC(=O)C(*)C (repeat unit) | 23.00
*c1c(C)cc(C(c2cc(C(F)(F)F)cc(C(F)(F)F)c2)c2cc(C)c(N3C(=O)c4ccc(Oc5ccc6c(c5)C(=O)N(*)C6=O)cc4C3=O)c(C)c2)cc1C (repeat unit) | 281.90
*c1cccc(N2C(=O)c3ccc(C(c4ccc5c(c4)C(=O)N(c4cccc(N6C(=O)c7ccc(-c8ccc9c(c8)C(=O)N(*)C9=O)cc7C6=O)c4)C5=O)(C(F)(F)F)C(F)(F)F)cc3C2=O)c1 (repeat unit) | 308.00
*CC(*)C(=O)OCF (repeat unit) | 15.00
*CCC1C(=O)N(CCCC)C(=O)C1* (repeat unit) | 67.90
